We go through 48 substances from patent US10517889B2, “Modulators of SMAD7 expression” (Ionis Pharmaceuticals, Inc., priority 2017, dated 2019).

Strand notation (5' to 3'): a small letter for the sugar, then the base; units joined by * are phosphorothioate-linked, units joined directly phosphodiester-linked; [ ] holds rarer units or linkages, { } end groups; capitals alone tell only the bases. k = constrained ethyl (cEt); [5mC] = 5-methylcytosine; d = 2'-deoxy (DNA)

The test system of the first series is human SMAD7 mRNA. The experiment in a line: Antisense inhibition of human SMAD7 mRNA expression in Hep3B cells by 3-10-3 cEt gapmers, 10,000 nM, electroporation (Example 2). The format is cell-based. The note with it: Hep3B cells, electroporation with 10,000 nM antisense oligonucleotide, approximately 24 hours, SMAD7 mRNA by RT-PCR (RTS5062), relative to untreated control cells. The method in brief:
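Percent inhibition of SMAD7 mRNA, relative to untreated cells, after ~24 h exposure of electroporated Hep3B cells to 10,000 nM cEt gapmer; levels by qRT-PCR, corrected for total RNA.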
In the case of “799328 (kA*kT*kG*d[5mC]*dA*d[5mC]*dA*d[5mC]*dT*d[5mC]*dT*d[5mC]*d[5mC]*k[5mC]*kA*kG; antisense) [compound 799328]”, the “% Inhibition” value is reported as 0%.

With “799329 (kG*kT*kA*dT*dG*d[5mC]*dA*d[5mC]*dA*d[5mC]*dT*d[5mC]*dT*k[5mC]*k[5mC]*k[5mC]; antisense) [compound 799329]”, the “% Inhibition” value worked out at 0%.

For “799330 (kG*kG*kT*dA*dT*dG*d[5mC]*dA*d[5mC]*dA*d[5mC]*dT*d[5mC]*kT*k[5mC]*k[5mC]; antisense) [compound 799330]”, the “% Inhibition” value is on record as 45%.

As for “799331 (kA*kG*kG*dG*dT*dA*dT*dG*d[5mC]*dA*d[5mC]*dA*d[5mC]*kT*k[5mC]*kT; antisense) [compound 799331]”, the “% Inhibition” value is 1%.

With “799332 (kG*kG*kG*dA*dA*dT*dG*d[5mC]*d[5mC]*d[5mC]*dT*dT*dT*kG*kA*kG; antisense) [compound 799332]”, the “% Inhibition” value is 45%.

For the substance “799333 (kA*kG*kA*dA*dA*dA*d[5mC]*d[5mC]*dT*dG*dG*dA*dA*kG*kG*kG; antisense) [compound 799333]”, the “% Inhibition” value amounted to 24%.

In the case of “799334 (k[5mC]*k[5mC]*kG*dT*dA*dG*dA*d[5mC]*d[5mC]*d[5mC]*d[5mC]*dT*dT*k[5mC]*kG*kG; antisense) [compound 799334]”, the “% Inhibition” value is given as 21%.

Consider “799335 (kT*kG*k[5mC]*dA*dG*dG*dA*dG*d[5mC]*dA*dG*dT*dG*k[5mC]*k[5mC]*k[5mC]; antisense) [compound 799335]”, for which the “% Inhibition” value is on record as 31%.

As to “799336 (kA*k[5mC]*kT*dG*d[5mC]*dA*dG*dG*dA*dG*d[5mC]*dA*dG*kT*kG*k[5mC]; antisense) [compound 799336]”, the “% Inhibition” value is 25%.

“799337 (kG*kT*k[5mC]*dT*dT*dT*d[5mC]*d[5mC]*dG*dG*dG*dT*dG*k[5mC]*kG*kG; antisense) [compound 799337]”: the “% Inhibition” value turned out to be 30%.

In the case of “799348 (kA*kT*kA*dA*dA*dA*dG*dG*dA*dA*dA*dG*dG*kA*kG*kT; antisense) [compound 799348]”, the “% Inhibition” value amounted to 21%.

For “799349 (kA*kG*k[5mC]*dG*d[5mC]*dA*d[5mC]*dT*d[5mC]*dG*dG*dG*dA*kG*kA*kT; antisense) [compound 799349]”, the “% Inhibition” value was 0%.

For “799350 (kA*kT*kT*d[5mC]*d[5mC]*dT*dA*dG*d[5mC]*dG*d[5mC]*dA*d[5mC]*kT*k[5mC]*kG; antisense) [compound 799350]”, the “% Inhibition” value amounted to 31%.

Turning to “799351 (kT*kT*kT*dA*dG*d[5mC]*dT*dG*dT*d[5mC]*dA*dG*dA*kT*kA*kA; antisense) [compound 799351]”, the “% Inhibition” value is recorded as 31%.

Consider “799352 (kG*k[5mC]*kG*dG*dT*dG*dA*dT*dT*dG*d[5mC]*d[5mC]*dT*kT*kG*kA; antisense) [compound 799352]”, for which the “% Inhibition” value is 24%.

With “799353 (kT*k[5mC]*kT*dT*dT*dT*dA*dG*d[5mC]*d[5mC]*d[5mC]*dA*dA*k[5mC]*kT*kG; antisense) [compound 799353]”, the “% Inhibition” value is listed as 45%.

For the substance “799354 (kA*kT*k[5mC]*dT*dA*d[5mC]*dT*d[5mC]*dA*d[5mC]*d[5mC]*dA*dG*kT*kT*kG; antisense) [compound 799354]”, the “% Inhibition” value is recorded as 0%.

For the substance “799355 (kA*kG*kG*dA*dA*dA*d[5mC]*d[5mC]*dT*dA*dG*dA*dA*k[5mC]*k[5mC]*kA; antisense) [compound 799355]”, the “% Inhibition” value was found to be 23%.

“799356 (kG*kA*kA*dA*dA*dA*dT*dT*d[5mC]*dA*d[5mC]*d[5mC]*dA*kA*kA*k[5mC]; antisense) [compound 799356]”: the “% Inhibition” value amounted to 23%.

Consider “799357 (k[5mC]*kA*k[5mC]*dA*dA*d[5mC]*dA*dG*dA*dA*dA*dA*dA*kT*kT*k[5mC]; antisense) [compound 799357]”, for which the “% Inhibition” value is 41%.

In the case of “799367 (antisense kA*kG*kT*d[5mC]*dT*d[5mC]*d[5mC]*dG*dA*dG*dT*dT*dA*kT*k[5mC]*k[5mC]) [compound 799367]”, the “% Inhibition” value is 41%.

Take “799368 (antisense k[5mC]*kT*kA*dA*dG*dT*d[5mC]*dT*d[5mC]*d[5mC]*dG*dA*dG*kT*kT*kA) [compound 799368]”: the “% Inhibition” value was found to be 68%.

Regarding “799370 (antisense kG*kG*k[5mC]*dA*d[5mC]*dT*d[5mC]*dA*d[5mC]*dT*dA*dA*dG*kT*k[5mC]*kT) [compound 799370]”, the “% Inhibition” value came to 13%.

Take “799371 (antisense k[5mC]*k[5mC]*k[5mC]*dT*dT*dT*d[5mC]*d[5mC]*dA*dT*dT*dA*dT*kT*k[5mC]*k[5mC]) [compound 799371]”: the “% Inhibition” value is reported as 28%.

For “799372 (antisense k[5mC]*k[5mC]*k[5mC]*dA*dT*d[5mC]*dT*dA*dT*d[5mC]*dG*dA*dA*kT*k[5mC]*kA) [compound 799372]”, the “% Inhibition” value stood at 67%.

As to “799373 (antisense kA*kA*k[5mC]*d[5mC]*dG*dT*d[5mC]*dT*dT*d[5mC]*d[5mC]*d[5mC]*dA*kT*k[5mC]*kT) [compound 799373]”, the “% Inhibition” value was 56%.

The series is the same for the next values; noted with them: Hep3B cells, electroporation with 10,000 nM antisense oligonucleotide, approximately 24 hours, primer probe set RTS5062, relative to untreated control cells.
Turning to “799323 (antisense k[5mC]*k[5mC]*kA*dG*dG*dA*dG*dG*dG*dT*dA*dT*dG*k[5mC]*kA*k[5mC]) [compound 799323]”, the “% inhibition of SMAD7 mRNA expression” value is reported as 60%.

Turning to “799324 (antisense kT*k[5mC]*k[5mC]*d[5mC]*dA*dG*dG*dA*dG*dG*dG*dT*dA*kT*kG*k[5mC]) [compound 799324]”, the “% inhibition of SMAD7 mRNA expression” value was 6%.

Take “799325 (antisense kT*k[5mC]*kT*d[5mC]*d[5mC]*d[5mC]*dA*dG*dG*dA*dG*dG*dG*kT*kA*kT) [compound 799325]”: the “% inhibition of SMAD7 mRNA expression” value came out at 2%.

Consider “799326 (kA*k[5mC]*kA*d[5mC]*dT*d[5mC]*dT*d[5mC]*d[5mC]*d[5mC]*dA*dG*dG*kA*kG*kG; antisense) [compound 799326]”, for which the “% inhibition of SMAD7 mRNA expression” value is 31%.

As for “799327 (kG*k[5mC]*kA*d[5mC]*dA*d[5mC]*dT*d[5mC]*dT*d[5mC]*d[5mC]*d[5mC]*dA*kG*kG*kA; antisense) [compound 799327]”, the “% inhibition of SMAD7 mRNA expression” value was 52%.

Turning to “799338 (kT*kT*kA*dT*dA*dG*d[5mC]*dA*d[5mC]*dG*d[5mC]*d[5mC]*dT*k[5mC]*kT*k[5mC]; antisense) [compound 799338]”, the “% inhibition of SMAD7 mRNA expression” value was 0%.

As for “799339 (kG*kA*kT*dA*d[5mC]*d[5mC]*d[5mC]*dA*dG*dT*dT*d[5mC]*dG*kG*k[5mC]*k[5mC]; antisense) [compound 799339]”, the “% inhibition of SMAD7 mRNA expression” value was determined as 18%.

On to “799340 (kA*kG*kA*dT*dA*d[5mC]*d[5mC]*d[5mC]*dA*dG*dT*dT*d[5mC]*kG*kG*k[5mC]; antisense) [compound 799340]”, for which the “% inhibition of SMAD7 mRNA expression” value came out at 0%.

Consider “799341 (kG*kA*kA*dG*dG*dA*dA*dA*dA*dA*dG*dT*dA*kG*kG*kG; antisense) [compound 799341]”, for which the “% inhibition of SMAD7 mRNA expression” value is listed as 8%.

In the case of “799342 (k[5mC]*kT*kT*dA*dT*d[5mC]*dT*dG*dT*dG*d[5mC]*dG*dG*kA*kA*kG; antisense) [compound 799342]”, the “% inhibition of SMAD7 mRNA expression” value is listed as 44%.

For “799343 (kA*k[5mC]*kT*dA*dA*dT*d[5mC]*dT*dA*d[5mC]*dA*dG*dA*k[5mC]*kT*kT; antisense) [compound 799343]”, the “% inhibition of SMAD7 mRNA expression” value is on record as 53%.

For “799344 (k[5mC]*k[5mC]*k[5mC]*dA*d[5mC]*dT*dA*dA*dT*d[5mC]*dT*dA*d[5mC]*kA*kG*kA; antisense) [compound 799344]”, the “% inhibition of SMAD7 mRNA expression” value was 34%.

As to “799345 (k[5mC]*kG*kA*dG*dA*dA*dG*d[5mC]*d[5mC]*d[5mC]*dA*dG*dG*k[5mC]*k[5mC]*k[5mC]; antisense) [compound 799345]”, the “% inhibition of SMAD7 mRNA expression” value amounted to 20%.

Regarding “799346 (kT*k[5mC]*kT*d[5mC]*dA*dG*d[5mC]*d[5mC]*dG*dA*dG*dA*dA*kG*k[5mC]*k[5mC]; antisense) [compound 799346]”, the “% inhibition of SMAD7 mRNA expression” value is 26%.

As to “799347 (kA*kA*kG*dG*dA*dG*dT*dT*dT*d[5mC]*dA*dG*dG*kG*kT*k[5mC]; antisense) [compound 799347]”, the “% inhibition of SMAD7 mRNA expression” value turned out to be 59%.

On to “799358 (kA*kG*k[5mC]*dA*d[5mC]*dA*dA*dA*dT*dA*d[5mC]*dA*dT*kG*kA*kA; antisense) [compound 799358]”, for which the “% inhibition of SMAD7 mRNA expression” value was 52%.

As to “799359 (kT*kG*kT*dT*dA*dA*dA*dG*d[5mC]*dT*dG*dA*dG*k[5mC]*k[5mC]*k[5mC]; antisense) [compound 799359]”, the “% inhibition of SMAD7 mRNA expression” value is listed as 22%.

Regarding “799360 (k[5mC]*k[5mC]*kA*dA*dG*dA*d[5mC]*dA*d[5mC]*dT*dT*d[5mC]*dT*k[5mC]*kT*k[5mC]; antisense) [compound 799360]”, the “% inhibition of SMAD7 mRNA expression” value stood at 42%.

As to “799361 (kG*kT*k[5mC]*d[5mC]*dT*dA*dT*dT*dT*dG*dG*dT*dT*k[5mC]*k[5mC]*k[5mC]; antisense) [compound 799361]”, the “% inhibition of SMAD7 mRNA expression” value was 77%.

Regarding “799362 (k[5mC]*kA*kT*d[5mC]*dA*dA*d[5mC]*d[5mC]*dA*dG*dT*d[5mC]*d[5mC]*kT*kA*kT; antisense) [compound 799362]”, the “% inhibition of SMAD7 mRNA expression” value is recorded as 39%.

Regarding “799363 (kG*kA*kG*dT*dT*dA*dT*d[5mC]*d[5mC]*d[5mC]*d[5mC]*dA*dT*k[5mC]*kA*kA; antisense) [compound 799363]”, the “% inhibition of SMAD7 mRNA expression” value came out at 49%.

Staying with this series, now noted: Hep3B cells, electroporation, 10,000 nM antisense oligonucleotide, approximately 24 hours, RTS5062, relative to untreated control cells.
As for “799320 (antisense kG*kT*k[5mC]*dT*dG*d[5mC]*dT*dG*dT*dG*dG*dA*dT*kT*kT*kG) [compound 799320]”, the “% inhibition of SMAD7 mRNA expression” value is 0%.
